From ChEMBL document CHEMBL5370544, “Design, synthesis, and biological evaluation of 1-styrenyl isoquinoline derivatives for anti-hepatocellular carcinoma activity and effect on mitochondria” (Eur J Med Chem, 2023)

Tests used:
[1] = tested on: HCCLM9; experiment: Antiproliferative activity against human HCCLM9 cells assessed as inhibition of cell growth measured after 72 hrs by MTT assay; type: functional, cell-based; conditions: HCCLM9, 72 h
[2] = tested on: SK-HEP1; experiment: Antiproliferative activity against human SK-HEP1 cells assessed as inhibition of cell growth measured after 72 hrs by MTT assay; type: functional, cell-based; conditions: SK-HEP1, 72 h
[3] = tested on: Huh-7; experiment: Antiproliferative activity against human Huh-7 cells assessed as inhibition of cell growth measured after 72 hrs by MTT assay; type: functional, cell-based; conditions: Huh-7, 72 h
[4] = tested on: HepG2; experiment: Antiproliferative activity against human HepG2 cells assessed as inhibition of cell growth measured after 72 hrs by MTT assay; type: functional, cell-based; conditions: HepG2, 72 h
[5] = tested on: Huh-7; experiment: Antitumor activity against human Huh-7 cells xenografted in BALB/c mouse assessed as tumor growth inhibition at 15 mg/kg, ip qd measured after 14 days; type: functional; conditions: Huh-7, 336 h, time 14 day, read-out: TGI

## COc1ccc(/C=C/c2nccc3ccccc23)cc1
[1]
  IC50: > 40 µM
[2]
  IC50: > 40 µM
[3]
  IC50: 15.8 µM
[4]
  IC50: 18.1 µM

## Nc1ccccc1/C=C/c1nccc2ccccc12
[1]
  IC50: > 40 µM
[2]
  IC50: 26.1 µM
[3]
  IC50: > 40 µM
[4]
  IC50: 25.3 µM

## N#Cc1ccccc1/C=C/c1nccc2ccccc12
[1]
  IC50: 10.8 µM
[2]
  IC50: 11.7 µM
[3]
  IC50: 4.52 µM
[4]
  IC50: 17.4 µM

## Nc1ccc(/C=C/c2nccc3ccccc23)cc1
[1]
  IC50: 16.1 µM
[2]
  IC50: > 40 µM
[3]
  IC50: 17.3 µM
[4]
  IC50: 23.4 µM

## Oc1ccc(/C=C/c2nccc3ccccc23)cc1
[1]
  IC50: 29.9 µM
[2]
  IC50: > 40 µM
[3]
  IC50: 11.9 µM
[4]
  IC50: > 40 µM

## CNC(=O)c1cc(Oc2ccc(NC(=O)Nc3ccc(Cl)c(C(F)(F)F)c3)cc2)ccn1 [SORAFENIB]
[1]
  IC50: 9.21 µM
[2]
  IC50: 8.63 µM
[3]
  IC50: 9.48 µM
[4]
  IC50: 9.03 µM
[5]
  inhibition in vivo at 15 mg/kg: 77%

## Oc1cccc(/C=C/c2nccc3ccccc23)c1
[1]
  IC50: > 40 µM
[2]
  IC50: > 40 µM
[3]
  IC50: 24.7 µM
[4]
  IC50: 20.4 µM

## O=c1[nH]cc(F)c(=O)[nH]1 [FLUOROURACIL]
[1]
  IC50: 27.2 µM
[2]
  IC50: > 40 µM
[3]
  IC50: 8.98 µM
[4]
  IC50: 29.4 µM

## Oc1ccccc1/C=C/c1nccc2ccccc12
[1]
  IC50: 13.6 µM
[2]
  IC50: 17.1 µM
[3]
  IC50: 6.07 µM
[4]
  IC50: 8.92 µM

## COc1ccccc1/C=C/c1nccc2ccccc12
[1]
  IC50: 37.6 µM
[2]
  IC50: 37.6 µM
[3]
  IC50: 23.9 µM
[4]
  IC50: 26.8 µM

## N#Cc1ccc(/C=C/c2nccc3ccccc23)cc1
[1]
  IC50: 30.7 µM
[2]
  IC50: > 40 µM
[3]
  IC50: 5.61 µM
[4]
  IC50: > 40 µM

## C(=C\c1nccc2ccccc12)/c1ccc(-c2ccccc2)cc1
[1]
  IC50: > 40 µM
[2]
  IC50: > 40 µM
[3]
  IC50: > 40 µM
[4]
  IC50: > 40 µM

## CC(=O)Oc1ccc(/C=C/c2nccc3ccccc23)cc1
[1]
  IC50: 35.1 µM
[2]
  IC50: 23.4 µM
[3]
  IC50: 15.4 µM
[4]
  IC50: 20.6 µM

## COc1cccc(/C=C/c2nccc3ccccc23)c1
[1]
  IC50: 20.4 µM
[2]
  IC50: 33 µM
[3]
  IC50: 15.1 µM
[4]
  IC50: 10.8 µM

## N#Cc1cccc(/C=C/c2nccc3ccccc23)c1
[1]
  IC50: > 40 µM
[2]
  IC50: > 40 µM
[3]
  IC50: 12.2 µM
[4]
  IC50: > 40 µM

## Nc1cccc(/C=C/c2nccc3ccccc23)c1
[1]
  IC50: 30.9 µM
[2]
  IC50: > 40 µM
[3]
  IC50: 14.1 µM
[4]
  IC50: 8.66 µM

## Oc1ccc(/C=C/c2cc(O)cc(O)c2)cc1 [RESVERATROL]
[1]
  IC50: > 40 µM
[2]
  IC50: > 40 µM
[3]
  IC50: > 40 µM
[4]
  IC50: > 40 µM

## C#Cc1ccccc1/C=C/c1nccc2ccccc12
[1]
  IC50: > 40 µM
[2]
  IC50: 39.2 µM
[3]
  IC50: 24.8 µM
[4]
  IC50: 31 µM

## C#Cc1ccc(/C=C/c2nccc3ccccc23)cc1
[1]
  IC50: > 40 µM
[2]
  IC50: > 40 µM
[3]
  IC50: 12.9 µM
[4]
  IC50: > 40 µM

## CC(=O)Oc1cccc(/C=C/c2nccc3ccccc23)c1
[1]
  IC50: 28.6 µM
[2]
  IC50: 14.3 µM
[3]
  IC50: 11.6 µM
[4]
  IC50: 14.5 µM
